From paper PMC4225009, “Structure-activity-relationship study of N-acyl-N-phenylpiperazines as potential inhibitors of the Excitatory Amino Acid Transporters (EAATs): improving the potency of a micromolar screening Hit is not truism” (SpringerPlus, 2013)
Where two headings read alike, the source gives them in different places.

How the values were obtained:
Format in all cases: cell-based
human EAAT1 = molecular target: T1, human EAAT1 (Homo sapiens, UniProt P43003); experiment: [3H]-D-aspartate uptake assay at HEK293 cells stably expressing human EAAT1
T1 construct: expressed in transfected cells
Description: (§1) In total, […] piperazine analogs 2.1-2.40 and 3.1-3.12 were characterized pharmacologically at stable HEK293 cells expressing human EAAT1-3 in a [^3H]-D-aspartate uptake assay, (Jensen & Bräuner-Osborne [2004]) and the results are summarized in Table 1 and Table 2. […] Usually, such findings would lead to the conclusion that the bicyclo-[2.2.1]-heptanyl group occupies a promiscuous hydrophobic pocket, which could be optimized for increased potency. However, upon increasing or decreasing the hydrophobic bulk and/or flexibility, a clear drop in potency was observed (analogs 2.1-2.17, Table 1). […] These findings could open up for the hypothesis that the pocket is indeed not hydrophobic but instead hydrophilic in nature. Upon binding of the hydrophobic alkane group, water molecules are forced out and ligand binding is entropically driven rather than enthalpically. Thus analogs 2.18-2.31, which comprise a hydrophobic group, could be potential inhibitors.
(§2) Analogs 2.22-2.31, 2.36-2.40, 3.3, 3.4, 3.6 and 3.12 were obtained as 5 mg portions pre-dissolved in DMSO from ChemBridge corporation and used directly in the [3H]-Asp-uptake assay.

human EAAT2 = molecular target: T2, human EAAT2 (Homo sapiens, UniProt P43004); experiment: [3H]-D-aspartate uptake assay at HEK293 cells stably expressing human EAAT2
T2 construct: expressed in transfected cells
Description: as §1, §2

human EAAT3 = molecular target: T3, human EAAT3 (Homo sapiens, UniProt P43005); experiment: [3H]-D-aspartate uptake assay at HEK293 cells stably expressing human EAAT3
T3 construct: expressed in transfected cells
T3 sequence (P43005 1-524): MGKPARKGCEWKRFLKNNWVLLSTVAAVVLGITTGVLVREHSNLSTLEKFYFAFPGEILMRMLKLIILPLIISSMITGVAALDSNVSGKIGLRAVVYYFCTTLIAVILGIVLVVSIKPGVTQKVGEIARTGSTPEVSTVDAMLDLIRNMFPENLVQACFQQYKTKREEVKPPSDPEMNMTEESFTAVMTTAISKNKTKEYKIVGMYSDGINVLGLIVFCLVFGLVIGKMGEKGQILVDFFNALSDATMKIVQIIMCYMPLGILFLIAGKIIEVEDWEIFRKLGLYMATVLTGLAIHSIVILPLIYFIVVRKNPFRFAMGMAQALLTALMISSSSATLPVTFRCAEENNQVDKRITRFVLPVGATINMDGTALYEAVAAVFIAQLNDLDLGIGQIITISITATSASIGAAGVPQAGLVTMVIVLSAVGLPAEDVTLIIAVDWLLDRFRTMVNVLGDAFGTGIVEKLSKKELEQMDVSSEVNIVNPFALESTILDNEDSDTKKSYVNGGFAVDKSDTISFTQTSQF
Description: as §1, §2

[1] = [3H]-D-aspartate uptake, HEK293 cells stably expressing human EAAT1, analogs 1 and 2.1-2.40 (Table 1), read-out: EAAT1 IC50
[2] = [3H]-D-aspartate uptake, HEK293 cells stably expressing human EAAT2, analogs 1 and 2.1-2.40 (Table 1), read-out: EAAT2 IC50
[3] = [3H]-D-aspartate uptake, HEK293 cells stably expressing human EAAT3, analogs 1 and 2.1-2.40 (Table 1), read-out: EAAT3 IC50

T1 sequence (P43003 whole entry): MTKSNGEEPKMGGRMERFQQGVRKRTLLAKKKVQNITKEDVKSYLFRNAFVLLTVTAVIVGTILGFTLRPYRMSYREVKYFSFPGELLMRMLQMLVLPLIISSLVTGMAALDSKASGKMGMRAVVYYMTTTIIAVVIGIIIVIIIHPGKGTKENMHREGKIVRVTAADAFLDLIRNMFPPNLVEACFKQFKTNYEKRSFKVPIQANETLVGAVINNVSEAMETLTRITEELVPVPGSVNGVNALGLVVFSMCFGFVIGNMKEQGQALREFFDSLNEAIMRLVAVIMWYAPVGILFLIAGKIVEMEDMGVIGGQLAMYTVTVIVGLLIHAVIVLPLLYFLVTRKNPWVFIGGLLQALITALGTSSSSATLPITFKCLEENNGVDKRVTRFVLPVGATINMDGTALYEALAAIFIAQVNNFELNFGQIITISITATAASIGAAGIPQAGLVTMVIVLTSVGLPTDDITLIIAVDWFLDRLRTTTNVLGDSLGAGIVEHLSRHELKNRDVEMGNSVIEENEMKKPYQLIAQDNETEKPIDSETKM
T2 sequence (P43004 whole entry): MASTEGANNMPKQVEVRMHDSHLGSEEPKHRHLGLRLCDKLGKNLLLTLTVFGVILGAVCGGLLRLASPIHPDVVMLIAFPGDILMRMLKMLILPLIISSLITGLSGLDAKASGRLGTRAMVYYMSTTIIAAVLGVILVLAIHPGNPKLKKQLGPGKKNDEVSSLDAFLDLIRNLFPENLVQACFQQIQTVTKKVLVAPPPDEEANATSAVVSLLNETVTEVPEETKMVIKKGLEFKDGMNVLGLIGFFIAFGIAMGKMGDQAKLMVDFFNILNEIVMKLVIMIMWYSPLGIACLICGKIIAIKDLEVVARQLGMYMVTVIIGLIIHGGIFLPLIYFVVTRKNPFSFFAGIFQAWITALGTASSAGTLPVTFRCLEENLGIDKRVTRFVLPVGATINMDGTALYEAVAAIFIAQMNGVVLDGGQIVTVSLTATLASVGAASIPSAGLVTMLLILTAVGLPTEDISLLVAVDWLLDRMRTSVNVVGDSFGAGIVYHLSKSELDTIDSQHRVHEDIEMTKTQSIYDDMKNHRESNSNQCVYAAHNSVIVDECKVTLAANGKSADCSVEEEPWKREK

SMILES	IC50 (human EAAT1; [1]) [µM]	IC50 (human EAAT2; [2]) [µM]	IC50 (human EAAT3; [3]) [µM]	IC50 (human EAAT1) [µM]	IC50 (human EAAT2) [µM]	IC50 (human EAAT3) [µM]
O=C(C1CC1)N1CCN(c2cccc(C(F)(F)F)c2)CC1 [2.5, Cyclopropyl(4-(3-(trifluoromethyl)phenyl)piperazin-1-yl)methanone]	> 300	> 300	> 300	–	–	–
CC(C)(C)C(=O)N1CCN(c2cccc(C(F)(F)F)c2)CC1 [2.6, 2,2-Dimethyl-1-(4-(3-(trifluoromethyl)phenyl)piperazin-1-yl)propan-1-one]	–	–	–	> 1000	> 300	> 300
CC(=O)N1CCN(c2cccc(C(F)(F)F)c2)CC1 [2.7, 1-(4-(3-(Trifluoromethyl)phenyl)piperazin-1-yl)ethanone]	> 1000	> 100	> 100	–	–	–
CC(C)CC(=O)N1CCN(c2cccc(C(F)(F)F)c2)CC1 [2.8, 3-Methyl-1-(4-(3-(trifluoromethyl)phenyl)piperazin-1-yl)butan-1-one]	> 300	> 300	> 300	–	–	–
CC(C)(C)CC(=O)N1CCN(c2cccc(C(F)(F)F)c2)CC1 [2.9, 3,3-Dimethyl-1-(4-(3-(trifluoromethyl)phenyl)piperazin-1-yl)butan-1-one]	> 300	> 300	> 300	–	–	–
CC(C)CCC(=O)N1CCN(c2cccc(C(F)(F)F)c2)CC1 [2.10, 4-Methyl-1-(4-(3-(trifluoromethyl)phenyl)piperazin-1-yl)pentan-1-one]	> 300	> 300	> 300	–	–	–
O=C(c1cccc(Oc2ccccc2)c1)N1CCN(c2cccc(C(F)(F)F)c2)CC1 [2.13, (3-Phenoxyphenyl)(4-(3-(trifluoromethyl)phenyl)piperazin-1-yl)methanone]	> 300	> 300	> 300	–	–	–
O=C(c1cccc2ccccc12)N1CCN(c2cccc(C(F)(F)F)c2)CC1 [2.15, Naphthalen-1-yl(4-(3-(trifluoromethyl)phenyl)piperazin-1-yl)methanone]	–	–	–	> 300	> 300	> 300
O=C(c1cccs1)N1CCN(c2cccc(C(F)(F)F)c2)CC1 [2.16, Thiophen-2-yl(4-(3-(trifluoromethyl)phenyl)piperazin-1-yl)methanone]	–	–	–	> 100	> 100	> 100
O=C(Cc1ccccc1)N1CCN(c2cccc(C(F)(F)F)c2)CC1 [2.17, 1-(4-(3-(Trifluoromethyl)phenyl)piperazin-1-yl)-2-phenylethanone]	–	–	–	> 300	> 300	> 1000
Nc1ccc(C(=O)N2CCN(c3cccc(C(F)(F)F)c3)CC2)cc1 [2.18, 4-Aminophenyl-(4-(3-(trifluoromethyl)phenyl)piperazin-1-yl)methanone]	–	–	–	> 300	> 300	> 300
Nc1cccc(C(=O)N2CCN(c3cccc(C(F)(F)F)c3)CC2)c1 [2.19, 3-Aminophenyl-(4-(3-(trifluoromethyl)phenyl)piperazin-1-yl)methanone]	–	–	–	> 300	> 300	> 300
NCC(=O)N1CCN(c2cccc(C(F)(F)F)c2)CC1 [2.20, 2-Amino-1-(4-(3-(trifluoromethyl)phenyl)piperazin-1-yl)ethanone]	–	–	–	> 300	> 300	> 300
FC(F)(F)c1cccc(N2CCN(Cc3ccccc3)CC2)c1 [2.35, 1-Benzyl-4-(3-(trifluoromethyl)phenyl)piperazine]	–	–	–	> 300	> 300	> 1000
